The results in this text go back to patent EP4488279A1, “SUBSTITUTED HEXAHYDRO-2H-PYRAZINO[1,2-A]PYRAZIN-1(6H)-ONE DERIVATIVES AS ACTIVATORS OF HUMAN CASEINOLYTIC PROTEASE P (HSCLPP)” (Centro Atlantico del Medicamento S.A (Ceamed, S.A), priority 2023, dated 2025).

One data set deals with Yeast + HsCIpP. Nature of the data set: Yeast growth inhibition screen, yeast expressing human ClpP. Particulars: Saccharomyces cerevisiae, 24 h, read-out: Yeast + HsCIpP GI50. The data set is classed as cell-based. From the text:
This technique allows to directionally assemble several DNA fragments into one single DNA piece. It is based on plasmid libraries that share the same DNA backbone but differ in the type of the insert. The assembly of the final cassette is based on the "Golden Gate Cloning" method. Human CLPP gene sequence (codon-optimized for yeast translation) was amplified with well-designed primers from a plasmid kindly provided by Dr. Michael David Tyers (University of Montreal). Once amplified, a MoClo reaction was performed to obtain the final integrative cassette. This cassette was composed as follows: • Type 1: ConLS 3' connector. • Type 2: TDH3 gene promoter (strong and constitutive expression). • Type 3: Amplified human CLPP gene. • Type 4: ADH1 gene terminator. • Type 5: ConR1 5' connector. • Type 6: LEU2 gene as selectable marker for yeast. • Type 7: 3' HO gene homology sequence for yeast integration. • Type 8a: KanR-ColE1 sequence for bacterial amplification and antibiotic resistance. • Type 8b: 5' HO gene homology sequence for yeast integration.
Digestion patterns with several restriction enzymes were carried out to confirm the success of the MoClo system. An extra restriction enzyme reaction (Notl) was performed to linearize the DNA fragment and deplete the bacterial part.
(§1) These cells contain mutants in YRS1, YRR1, PDR1 and PDR3 genes, which are involved in polydrug and pleiotropic resistance networks.
Yeast cells were transformed with the linearized cassette and transformant colonies were selected on minimum media without leucine. Independent clones were checked by PCR and positive ones were stored at -80 °C until use.
(§2) The yeast (both HsCpIP+ and HsCIpP-) are incubated in petri dishes with YPD (Yeast extract peptone dextrose) at 25 °C overnight, after which a colony is isolated, suspended in a flask with fresh YPD and incubating again under the same conditions but with agitation. […] 100 µl of this solution was then placed into the appropriated wells of a standard 96-well plate. Stock solutions (DMSO, 10 mM) of the compounds to be tested are diluted in YPD to 2X of their final concentrations to be tested, and 100 µl added to the appropriate wells. 100 µl of YPD was added to wells designated as the negative control wells, while ONC206 (0.5 µM) was used as the positive control. Once all compounds were added to the plate, an initial T = 0 absorbance value was recorded at 600 Nm. The plate was then incubated at 25 °C with gentle shaking for 24 h. The plates can either be read at multiple time points using a TECAN Spark® Multimode Microplate Reader, or at the end of the experiment using a standard spectrophotometer.
(§3) Table 2: Growth inhibition (GI50) values for compounds of the present invention in yeast containing HsCIpP, and yeast without HsCIpP.

The next data set concerns Yeast - HsCIpP. Nature of the data set: Yeast growth inhibition screen, yeast without human ClpP (selectivity control). Particulars: Saccharomyces cerevisiae, read-out: Yeast - HsCIpP GI50. The data set is classed as cell-based. As to the method: as §1, §2, §3
A further data set concerns 4T1. Nature of the data set: MTT cell viability assay, 4T1. It is filed as cell-based. The note with it: Mus musculus; 4T1 cells, 48 H, MTT, average of at least two independent experiments; read-out: IC50 4T1 48 H. As to the method: This a mouse epithelial breast cancer cell line classified as being triple negative and mimics human breast cancer; stage IV.
Cell viability was assayed by measuring the mitochondrial reduction of the tetrazolium salt 3-(4,5-methyltiazol-2yl)-2,5diphenyl-tetrazolium bromide] (MTT) (Applichen; A2231,0010) [Mosmann T. J Immunol Methods. […] Oncogene. […] Cells were seeded at a density according to their exponential growth phase (normally 1000 to 5000/well). The cells were cultured at 37 °C in the dark in air containing 5% CO2. After 24h either vehicle (0.05% DMSO), or drug, was added to culture medium at the indicated concentrations (10 to 0,01microM). […] The medium was then removed, and the precipitated formazan was solubilized by the addition of DMSO (200 µL).
(In general: Formazan colour is commonly taken as a measure of viable cells.)

In another data set the test system is MDA-MB-231. Nature of the data set: MTT cell viability assay, MDA-MB-231. It is filed as cell-based. The note with it: Homo sapiens, MDA-MB-231 cells, 72 H, average of at least two independent experiments. As to the method: This a human breast cancer cell line derived from a metastatic site from a person.
(§4) Cell viability was assayed by measuring the mitochondrial reduction of the tetrazolium salt 3-(4,5-methyltiazol-2yl)-2,5diphenyl-tetrazolium bromide] (MTT) (Applichen; A2231,0010) [Mosmann T. J Immunol Methods. […] Oncogene. […] Cells were seeded at a density according to their exponential growth phase (normally 1000 to 5000/well). The cells were cultured at 37 °C in the dark in air containing 5% CO2. After 24h either vehicle (0.05% DMSO), or drug, was added to culture medium at the indicated concentrations (10 to 0,01microM). After another 72 h, MTT (0.3 mg/ml) was added to cells, followed by incubation for 2-4h at 37 °C in the dark. The medium was then removed, and the precipitated formazan was solubilized by the addition of DMSO (200 µL).

The subject of the next data set is U2 OS. Nature of the data set: MTT cell viability assay, U2 OS. It is filed as cell-based. The note with it: Homo sapiens, U2OS, U2 OS cells, 72 H, average of at least two independent experiments. As to the method: U2 OS [American Type Culture Collection (ATCC) reference number HTB-96]. This is a human bone cancer (a moderately differentiated sarcoma) cell derived from an osteosarcoma patient.
as §4

The subject of another data set is DU-145. Nature of the data set: MTT cell viability assay, DU-145. The data set is classed as cell-based. The note with it: Homo sapiens, DU-145 cells, 72 H, average of at least two independent experiments. As to the method:
This a human prostate cancer cell line derived from a metastatic site (brain) of a person.
as §4

In another data set the test system is PANC1. Nature of the data set: MTT cell viability assay, PANC1. It is filed as cell-based. The note with it: Homo sapiens, PANC-1, PANC1 cells, 72 H, average of at least two independent experiments. As to the method:
This a human cancer cell line derived from the pancreas of a person.
as §4

The next data set relates to 4T1 tumours. Nature of the data set: 4T1 syngeneic tumour model in immunocompetent mice. The data set is classed as in vivo, Balb/c mice. Particulars: 25 mg/kg PO three times per week. As to the method:
4T1 syngeneic tumours were induced in female immunocompetent Balb/c mice by inject 12500 4T1 cells (passage# <7, in PBS, 100 µL) into their left inguinal mammary fat pad. Once tumour volumes [measure using the formula V = 0.5(length x width^2)] reached […], treatment with either vehicle, or compound in vehicle, was began. Compounds were administered orally (PO) at a constant dose (typically 25 mg/kg) three times per week (Monday, Wednesday and Friday). Compounds (as ether their free base or salt) were formulated as either solutions or homogenous suspensions in a vehicle of 10% Cremaphor RH40 + 90% saline for injection. Formulations were prepared at concentrations (mg/mL) = Dose/5 (e.g. a dose of 25 mg/Kg used a formulation of 5 mg/ml). Once treatments began, tumour volumes and body weights were recorded on each treatment day. Treatments were continued until 25-28 days after first treatment day, after which the mice were sacrificed. Animals whose tumour reached […] during the experiment were also sacrificed.

In another data set the test system is MDA-MB-231 cells. Nature of the data set: cells. Particulars: for Result / TGI50: MDA-MB-231 72 H, SRB; for Result: cytostatic or not; for TGI50: total growth inhibition concentration. Here is the method:
In order to measure the cell population at the time zero (Tz) a plate of cells was stained with SRB 24 hours after seeding. The cell monolayers are fixed with cold 5% (w/v) trichloroacetic acid for 60 minutes at 4°C. The excess of trichloroacetic acid is removed by washing five times with distilled water. Sulforhodamine B (SRB) solution [50 µL at 0.4%(w/v) in 1% acetic acid] is added to each well and plates are incubated for 8 minutes at room temperature. The excess dye is removed by washing five times with 1% (v/v) acetic acid. The bound stain is subsequently solubilized with (100 µL) 10 mM trizma base and the absorbance is read on automated plate reader at a wavelength of 550 nm.
Compounds at various concentrations were added to an identical cell-seeded (non-treated) plate and incubated at 37°C (5% CO2) for an additional […]. Cells were fixed and stained following the same protocol. The measurement of the cell population after 72 hours in the presence of the drug is (Ti). Several wells in the same plate were treated with the control vehicle.
Using the absorbance measurements, time zero (Tz), control growth (C), and test growth in the present of the compound (Ti) the percentage growth inhibition is calculated as: • [(Ti-Tz)/(C-Tz)] x 100 for concentrations for which Ti >/= Tz • [(Ti-Tz)/Tz] x 100 for concentrations for which Ti <Tz
These values were determined using GraphPad software v5 (San Diego, CA).

[1] abbreviates: yeast without HsCIpP, 24 h at 25 °C, absorbance at 600 nm.

The structures appear in SMILES notation. Where two headings read alike, the source gives them in different places.

With `O=C1C2CN(Cc3cccc(F)c3)CCN2CCN1Cc1cccc(Cl)c1` (stereo not drawn) [Compound 4], the values for the GI50 with Yeast + HsCIpP and with Yeast - HsCIpP (setting [1]) were 210 nM and more than 10000 nM, respectively. The IC50 in the data set on 4T1 came to 330 nM; in the data set with MDA-MB-231 it was 450 nM; in the data set on U2 OS, 500 nM; in the data set on DU-145 it was 850 nM; in the data set on PANC1, 335 nM. The “changes in body weights” value with 4T1 tumours (4T1 tumour-bearing Balb/c mice, during the experimental period) is given as “no significant changes”. Besides, the Tumour growth reduced with 4T1 tumours (established 4T1 tumours, female Balb/c mice, versus vehicle, p < 0.01) was found to be 50%.

Regarding `O=C1C2CN(Cc3cccc(F)c3)CCN2CCN1Cc1cccc(C(F)(F)F)c1` (stereo not drawn) [Compound 13, 8-(3-fluorobenzyl)-2-(3-(trifluoromethyl)benzyl)hexahydro-2H-pyrazinof1,2-alpyrazin-1(6H)-one], the GI50 with Yeast + HsCIpP was 40 nM; in the data set on Yeast - HsCIpP (setting [1]), more than 10000 nM; in the data set with MDA-MB-231 cells (Homo sapiens, MDA-MB-231, 72 h), 420 nM. Moreover, the IC50 in the data set with 4T1 was found to be 170 nM; with MDA-MB-231, 190 nM; with U2 OS it was 300 nM; in the data set with DU-145, 250 nM; in the data set on PANC1, 165 nM. Moreover, in the data set on MDA-MB-231 cells (Homo sapiens, MDA-MB-231, 72 h, read-out: LC50), the CC50 is more than 10000 nM. The Result result with MDA-MB-231 cells is listed as “Cytostatic”. The TGI50 in the data set with MDA-MB-231 cells is more than 10 µM.

As to `O=C1C2=C(CCN(Cc3ccccc3)C2)N2CCN=C2N1Cc1ccc(F)cc1F` [ONC206, reference compound], the GI50 was 4560 nM with Yeast + HsCIpP; more than 10000 nM in the data set with Yeast - HsCIpP (24 h); 730 nM in the data set with MDA-MB-231 cells (Homo sapiens, MDA-MB-231, 72 h). Besides, the IC50 was found to be 600 nM in the data set on 4T1; 600 nM with MDA-MB-231; 800 nM in the data set on U2 OS; 370 nM in the data set with DU-145; 300 nM with PANC1. Moreover, the Result entry in the data set on MDA-MB-231 cells is on record as “Cytostatic”. In the data set on MDA-MB-231 cells, this compound displayed a TGI50 of more than 10 µM.

The term GI50 denotes the concentration at which growth is held to half of that of the control. In general, IC50 refers to the concentration that inhibits the measured activity by half.
